Data published in patent publication US7582616B2, “Nucleoside transport inhibitors” (Quesrema Enterprises LLC, priority 2003, dated 2009).
Marks after values point to notes of the source that are not given here.

Assays:
rat heart = experiment: Rat heart isolated model, recovery from global ischemia; type: in vivo; conditions: for Percentage recovery relative to control levels: global ischemia; for Change in EDP / Recovery from 30 min Global Ischemia (LVDP): treatment during ischemia and reperfusion, mean SEM; for Change in EDP: end diastolic pressure; for Recovery from 30 min Global Ischemia (LVDP): left ventricular developed pressure
Excerpt: In addition, treatment with compound 4 also appears to keep the heart more relaxed than treatment with either control or NBMPR, an added benefit not seen with the standard agent.

[1] = target: T1, es nucleoside transporter (Homo sapiens, UniProt Q99808); experiment: Flow cytometric es nucleoside transporter binding assay (displacement of 5-(SAENTA)-X8-fluorescein) in K562 cells; conditions: for Ki: 25 nM 5-(SAENTA)-X8-fluorescein, 45 minutes, room temperature, read-out: Flow Cytometrically-Determined Ki Values; for Ki at the es transporter, in words: displacement of 5-(SAENTA)-X8-fluorescein
T1 construct: endogenous in cells; host or cells: K562 human chronic myelogenous leukemia cells (intact cells)
T1 sequence (Q99808 1-456): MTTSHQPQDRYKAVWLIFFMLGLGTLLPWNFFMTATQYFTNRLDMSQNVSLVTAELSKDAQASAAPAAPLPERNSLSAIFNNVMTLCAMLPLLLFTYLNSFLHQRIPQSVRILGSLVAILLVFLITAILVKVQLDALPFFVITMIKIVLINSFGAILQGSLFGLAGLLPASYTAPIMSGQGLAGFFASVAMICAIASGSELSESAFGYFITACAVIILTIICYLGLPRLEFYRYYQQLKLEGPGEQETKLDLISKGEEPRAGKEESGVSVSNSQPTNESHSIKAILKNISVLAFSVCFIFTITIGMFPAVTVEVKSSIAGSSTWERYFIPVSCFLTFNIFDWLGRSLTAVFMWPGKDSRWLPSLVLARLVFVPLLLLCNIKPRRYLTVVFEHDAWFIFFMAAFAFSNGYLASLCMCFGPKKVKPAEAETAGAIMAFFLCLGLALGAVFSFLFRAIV
Method: FIG. 1 is a graph showing the equilibrium displacement of SAENTA-fluorescein ligand by of new tetrahydroisoquinoline constrained NBMPR analogs in K562 cells. Cells are incubated with 25 nM SAENTA fluorescein in the presence of inhibitor for 45 minutes at room temperature and analyzed by flow cytometry.
Exemplary compounds are tested to determine their es nucleoside transporter binding ability by a flow cytometric assay (Buolamwini et al., 1994). Human leukemia K562 cells growing in RPMI 1640 medium are washed once and suspended at 1.6×10^6 cells/ml in phosphate-buffered saline at pH 7.4, and incubated with 5-(SAENTA)-X8-fluorescein (25 nM) in the presence or absence of varying concentrations of test compounds at room temperature for 45 minutes. Flow cytometric measurements for cell-associated fluorescence are then performed with a FACSCalibur (Becton Dickinson, San Jose, Calif.) equipped with a 15 mW-argon laser (Molecular Resources Flow Cytometry Facility, University of Tennessee Health Sciences Center). In each assay, 5,000 cells are analyzed from suspensions of 4×10^5 cells/ml. The units of fluorescence are arbitrary channel numbers. Percentage (%) of control (i.e. es transporter-specific fluorescence in the presence of SAENTA-fluor without test compounds) is calculated for each sample by the equation below.
[formula] • where SFs is the es transporter-specific fluorescence of test samples, and SFf is the es transporter-specific fluorescence of the SAENTA-fluor ligand standard.
The results are fed into the PRISM program (GraphPad, San Diego, Calif.) to derive concentration-dependent curves using nonlinear regression, as shown in FIG. 1. From these curves, the IC50 values are obtained that are used to compare abilities of the new compounds to displace the es transporter-specific ligand (5-(SAENTA)-X8-fluorescein (Buolamwini et al., 1994).
Examples of the present invention (2-5) are tested along with 6-(1,2,3,4-tetrahydroisoquinolinyl)purine riboside (23) as es transporter binding ligands by a facile competitive binding flow cytometric assay using the K562 chronic myelogenous leukemia cell line. The high-affinity es transporter fluorescent ligand, 5-(SAENTA)-X8-fluorescein is used as the competitive ligand to be displaced by the test compounds.

[2] = system: nucleoside transporter (uridine uptake in JB6 cells); experiment: Inhibition of [3H]uridine uptake in JB6 cells; type: cell-based; conditions: 1 μM [3H]uridine, 10-second uptake
Method: FIG. 2 is a graph showing inhibition of [^3H]uridine uptake by NBMPR (•) and a novel tetrahydroisoquinoline analogue compound 12 (◯) in JB6 cells. Cells in logarithmic phase of growth are incubated with 1 μM […] and 10-second uptake measurements were performed as described in Paterson et al. (1983). The data points are mean ±std for triplicate samples.
Cells in logarithmic phase of growth are incubated with 1 μM [^3H]uridine and 10-second uptake measurements are performed as described in Paterson et al. (1983).

es transporter = target: T2, es transporter (Homo sapiens, UniProt Q99808); conditions: product of in vivo loss of the nitrobenzyl group of NBMPR; cited from earlier work
T2 sequence (Q99808 1-456): T1 sequence (Q99808 1-456)

SMILES: O=[N+]([O-])c1ccc(CSc2ncnc3c2ncn3[C@@H]2O[C@H](CO)[C@@H](O)[C@H]2O)cc1 [Compound 1, nitrobenzylthioinosine, reference compound]
- Percentage recovery relative to control levels (rat heart): doubles
- Change in EDP (rat heart): 65.2 ± 3.2%
- Recovery from 30 min Global Ischemia (LVDP) (rat heart): 24.40 ± 3.6% (n = 5)^d

SMILES: O=[N+]([O-])c1cccc2c1CCN(c1ncnc3c1ncn3[C@@H]1O[C@H](CO)[C@@H](O)[C@H]1O)C2 [Compound 2]
- IC50 / binding to the es transporter (inhibition of SAENTA-fluor binding), in words, FIG. 1 [1]: much less potent inhibitors
- Ki [1]: 0.25 µM
- Ki at the es transporter, in words [1]: high nanomolar concentrations

SMILES: O=[N+]([O-])c1ccc2c(c1)CCN(c1ncnc3c1ncn3[C@@H]1O[C@H](CO)[C@@H](O)[C@H]1O)C2 [Compound 3]
- IC50 / binding to the es transporter (inhibition of SAENTA-fluor binding), in words, FIG. 1 [1]: bound as tightly as the prototype compound, NBMPR
- Ki [1]: 0.015 µM
- melting point: 148 to 149 °C

SMILES: O=[N+]([O-])c1ccc2c(c1)CN(c1ncnc3c1ncn3[C@@H]1O[C@H](CO)[C@@H](O)[C@H]1O)CC2 [Compound 4]
- IC50 for inhibition of uridine uptake, FIG. 2 [2]: single digit nanomolar range
- Percentage recovery relative to control levels (rat heart): triples
- Change in EDP (rat heart): 52.5 ± 6.6%^f
- Recovery from 30 min Global Ischemia (LVDP) (rat heart): 33.60 ± 9.8% (n = 4)^e
- IC50 / binding to the es transporter (inhibition of SAENTA-fluor binding), in words, FIG. 1 [1]: low nanomolar range
- Ki [1]: 0.00045 µM

SMILES: O=[N+]([O-])c1cccc2c1CN(c1ncnc3c1ncn3[C@@H]1O[C@H](CO)[C@@H](O)[C@H]1O)CC2 [Compound 5]
- IC50 / binding to the es transporter (inhibition of SAENTA-fluor binding), in words, FIG. 1 [1]: much less potent inhibitors
- Ki [1]: 0.3 µM
- Ki at the es transporter, in words [1]: high nanomolar concentrations

SMILES: OC[C@H]1O[C@@H](n2cnc3c(N4CCc5ccccc5C4)ncnc32)[C@H](O)[C@@H]1O [Compound 23, 6-(1,2,3,4-tetrahydroisoquinolinyl)purine riboside]
- Ki [1]: 0.15 µM

SMILES: OC[C@H]1O[C@@H](n2cnc3c(=S)nc[nH]c32)[C@H](O)[C@@H]1O [mercaptopurine riboside]
- Decrease in es transporter affinity compared with NBMPR (es transporter): ≤ 1000 fold
